Active and inactive are the calls of the source. The rule behind the calls is not given here.
Tests used:
dengue virus type 2 = test: (§1) Inhibition of Dengue virus 2 recombinant NS2B/3 protease expressed in Escherichia coli BL21(DE3) assessed as Dabcyl-KGRRSSKL-Edans substrate cleavage by fluorimetry
[1] = as §1; design: species or system dengue virus type 2

Activity (dengue virus type 2)	IC50 [1]	Structure (SMILES)	Ki [1]
inactive	–	CC(C)C[C@H](NC(=O)CN)C(=O)N1CCC[C@H]1C(=O)N[C@H](C(=O)N[C@@H](CS)C(=O)NCC(=O)N[C@@H](CCC(=O)O)C(=O)N[C@H](C(=O)N[C@@H](CS)C(=O)N[C@H](C(=O)NCC(=O)NCC(=O)N[C@H](C(=O)N[C@@H](CS)C(=O)N[C@@H](CC(N)=O)C(=O)N[C@H](C(=O)N1CCC[C@H]1C(=O)NCC(=O)N[C@@H](CS)C(=O)N[C@H](C(=O)N[C@@H](CS)C(=O)N[C@@H](CO)C(=O)N[C@@H](CCC(=O)O)C(=O)N1CCC[C@H]1C(=O)N[C@H](C(=O)N[C@@H](CS)C(=O)N[C@H](C(=O)N[C@@H](CCCNC(=N)N)C(=O)N[C@@H](CC(N)=O)C(=O)O)[C@@H](C)O)C(C)C)[C@@H](C)O)[C@@H](C)O)[C@@H](C)O)C(C)C)[C@@H](C)O)C(C)C	–
–	4.3 µM	CC(C)C[C@@H]1NC(=O)CNC(=O)[C@H](CCCNC(=N)N)NC(=O)[C@H](CCCNC(=N)N)NC(=O)[C@H]([C@@H](C)O)NC(=O)[C@@H]2CSSC[C@H](NC(=O)CNC(=O)[C@@H]3CCCN3C(=O)[C@H]([C@@H](C)O)NC(=O)[C@@H](N)CC(=O)NC(=O)[C@@H]3CSSC[C@H](NC(=O)[C@H](C(C)C)NC(=O)[C@@H]4CCCN4C1=O)C(=O)NCC(=O)N[C@@H](CO)C(=O)N[C@@H](CCC(=O)O)C(=O)N[C@@H](CCC(=O)O)C(=O)N[C@@H](CO)C(=O)N[C@@H](CCCNC(=N)N)C(=O)N[C@@H](CCCNC(=N)N)C(=O)NCC(=O)N3)C(=O)N[C@@H](CCCNC(=N)N)C(=O)N[C@@H](CCCNC(=N)N)C(=O)N[C@@H](CO)C(=O)N[C@@H](Cc1c[nH]c3ccccc13)C(=O)N1CCC[C@H]1C(=O)N[C@@H](C(C)C)C(=O)N2	1.39 µM
inactive	–	CC(C)C[C@@H]1NC(=O)CNC(=O)[C@H](CC(N)=O)NC(=O)[C@H](CCCNC(=N)N)NC(=O)[C@H]([C@@H](C)O)NC(=O)[C@H](CS)NC(=O)[C@H](C(C)C)NC(=O)[C@@H]2CCCN2C(=O)[C@H](CCC(=O)O)NC(=O)[C@H](CO)NC(=O)[C@H](CS)NC(=O)[C@H]([C@@H](C)O)NC(=O)[C@H](CS)NC(=O)CNC(=O)[C@@H]2CCCN2C(=O)[C@H]([C@@H](C)O)NC(=O)[C@H](CC(N)=O)NC(=O)[C@H](CS)NC(=O)[C@H]([C@@H](C)O)NC(=O)CNC(=O)CNC(=O)[C@H](C(C)C)NC(=O)[C@H](CS)NC(=O)[C@H]([C@@H](C)O)NC(=O)[C@H](CCC(=O)O)NC(=O)CNC(=O)[C@H](CS)NC(=O)[C@H](C(C)C)NC(=O)[C@@H]2CCCN2C1=O	–
Active	–	CC(C)C[C@@H]1NC(=O)CNC(=O)[C@H](CCCNC(=N)N)NC(=O)[C@H](CCCNC(=N)N)NC(=O)[C@H]([C@@H](C)O)NC(=O)[C@H](CS)NC(=O)[C@H](C(C)C)NC(=O)[C@@H]2CCCN2C(=O)[C@H](Cc2c[nH]c3ccccc23)NC(=O)[C@H](CO)NC(=O)[C@H](CCCNC(=N)N)NC(=O)[C@H](CCCNC(=N)N)NC(=O)[C@H](CS)NC(=O)CNC(=O)[C@H]2CCCN2C(=O)[C@H]([C@@H](C)O)NC(=O)[C@@H](N)CC(=O)NC(=O)[C@H](CS)NC(=O)CNC(=O)[C@H](CCCNC(=N)N)NC(=O)[C@H](CCCNC(=N)N)NC(=O)[C@H](CO)NC(=O)[C@H](CCC(=O)O)NC(=O)[C@H](CCC(=O)O)NC(=O)[C@H](CO)NC(=O)CNC(=O)[C@H](CS)NC(=O)[C@H](C(C)C)NC(=O)[C@@H]2CCCN2C1=O	–
–	9.3 µM	CC(C)C[C@@H]1NC(=O)CNC(=O)[C@H](CCCNC(=N)N)NC(=O)[C@H](CCCNC(=N)N)NC(=O)[C@H]([C@@H](C)O)NC(=O)[C@@H]2CSSC[C@H](NC(=O)[C@H](C(C)C)NC(=O)[C@@H]3CCCN3C1=O)C(=O)NCC(=O)N[C@@H](CO)C(=O)N[C@@H](CCC(=O)O)C(=O)N[C@@H](CCC(=O)O)C(=O)N[C@@H](CO)C(=O)N[C@@H](CCCNC(=N)N)C(=O)N[C@@H](CCCNC(=N)N)C(=O)NCC(=O)N[C@H]1CSSC[C@H](NC(=O)CNC(=O)[C@@H]3CCCN3C(=O)[C@H]([C@@H](C)O)NC(=O)[C@@H](N)CC(=O)NC1=O)C(=O)N[C@@H](CCCNC(=N)N)C(=O)N[C@@H](CCCNC(=N)N)C(=O)N[C@@H](CO)C(=O)N[C@@H](Cc1c[nH]c3ccccc13)C(=O)N1CCC[C@H]1C(=O)N[C@@H](C(C)C)C(=O)N2	3.03 µM

Reference: ChEMBL document CHEMBL1159070, “Synthesis and disulfide bond connectivity-activity studies of a kalata B1-inspired cyclopeptide against dengue NS2B-NS3 protease” (Bioorg Med Chem, 2010)
